According to patent publication US20260285872A1, “COMPOUNDS AND METHODS FOR DEGRADING GSPT1” (priority 2023, published 2026):
pIC50: −log10 of the molar value. Where two headings read alike, the source gives them in different places. Values belong to the molecule of their own block, whether it stands above or below them.

Assays:
[1] = tested on: MV-4-11 cells; assay: AML cell viability, CellTiter-Glo, MV-4-11 cells; format: cell-based; details: Homo sapiens
Method: MV4-11 cells were obtained from ATCC and grown in IMDM supplemented with 10% FBS. The cells were maintained at 37° C. under 5% CO2. […] The luminescence was normalized to that of DMSO-treated samples. IC50 values were obtained using three-parameter non-linear regressions using Prism (GraphPad). […] Cell viability was measured using the CellTiter-Glo reagent after 44 hours of treatment. […] MV4-11 cells were obtained from ATCC and grown in IMDM supplemented with 10% FBS. The cells were maintained at 37° C. under 5% CO2. […] Cell viability was measured using the CellTiter-Glo reagent after 44 hours of treatment.

[2] = target: T1, GSPT1 (Homo sapiens, UniProt P15170+Q96SW2); assay: cell-based; details: read-out: GSPT1 degradation classification
[3] = target: T1, GSPT1; format: cell-based; details: read-out: GSPT1 degradation classification; DC50, GSPT1_HiBIT_HEK293 cells, 16 hours, Nano-Glo HiBiT Lytic Detection
Method: GSPT1_HiBIT_HEK293 cells were culture in DMEM medium with 10% FBS under standard tissue culture conditions. […] GSPT1 level was determined in along with the Nano-Glo HiBiT Lytic Detection system [Promega N3050] with final concentration of 1×. The luminescence was normalized to that of DMSO-treated samples. DC50 values were obtained using three-parameter non-linear regressions using Prism (GraphPad).

[4] = tested on: NCI-H1155 cells; assay: NSCLC cell viability, CellTiter-Glo, NCI-H1155 cells; format: cell-based; details: Homo sapiens; NCI-H1155 cells, CellTiter-Glo, 72 hours of treatment; read-out: Cell viability classification (NCI-H1155)
[5] = MV4-11, MV-4-11 cells, CellTiter-Glo, 44 hours of treatment, TABLE 1, read-out: Cell viability classification
[6] = MV4-11, 44 h, read-out: Cell viability classification
[7] = MV4-11, MV-4-11 cells, 1 μM, 6 hours, Western Blot, % reduction of GSPT1 compared to DMSO, normalized to GAPDH
[8] = MV4-11, MV-4-11 cells, CellTiter-Glo, 44 hours of treatment, TABLE 5, read-out: Cell viability classification (MV-4-11)

T1 sequence (P15170 whole entry): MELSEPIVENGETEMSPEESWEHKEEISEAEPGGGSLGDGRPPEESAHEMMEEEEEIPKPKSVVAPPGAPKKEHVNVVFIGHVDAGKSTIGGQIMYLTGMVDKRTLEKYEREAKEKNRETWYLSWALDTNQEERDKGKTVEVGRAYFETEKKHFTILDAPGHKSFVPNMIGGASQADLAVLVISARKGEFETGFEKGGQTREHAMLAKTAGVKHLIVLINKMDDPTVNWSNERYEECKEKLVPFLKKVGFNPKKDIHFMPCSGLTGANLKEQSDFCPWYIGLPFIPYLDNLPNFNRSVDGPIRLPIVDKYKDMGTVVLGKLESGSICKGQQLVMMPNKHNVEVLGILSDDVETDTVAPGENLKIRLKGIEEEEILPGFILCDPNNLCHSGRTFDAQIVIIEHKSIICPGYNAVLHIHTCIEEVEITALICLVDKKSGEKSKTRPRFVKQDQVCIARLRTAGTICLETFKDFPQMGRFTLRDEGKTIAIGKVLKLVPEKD
T1 sequence (Q96SW2 whole entry): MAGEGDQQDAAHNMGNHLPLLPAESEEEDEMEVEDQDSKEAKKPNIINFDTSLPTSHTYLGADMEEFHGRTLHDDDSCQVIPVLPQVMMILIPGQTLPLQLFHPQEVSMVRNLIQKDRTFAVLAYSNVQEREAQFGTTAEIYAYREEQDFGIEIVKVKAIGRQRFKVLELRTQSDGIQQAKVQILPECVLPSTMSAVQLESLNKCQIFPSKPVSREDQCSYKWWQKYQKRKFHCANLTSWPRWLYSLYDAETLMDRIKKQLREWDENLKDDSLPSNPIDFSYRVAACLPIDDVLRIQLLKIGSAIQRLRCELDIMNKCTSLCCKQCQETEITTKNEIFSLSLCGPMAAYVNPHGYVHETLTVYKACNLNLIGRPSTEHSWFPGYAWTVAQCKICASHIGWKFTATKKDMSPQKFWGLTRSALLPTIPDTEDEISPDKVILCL
T1 sequence (Q16531 whole entry partner): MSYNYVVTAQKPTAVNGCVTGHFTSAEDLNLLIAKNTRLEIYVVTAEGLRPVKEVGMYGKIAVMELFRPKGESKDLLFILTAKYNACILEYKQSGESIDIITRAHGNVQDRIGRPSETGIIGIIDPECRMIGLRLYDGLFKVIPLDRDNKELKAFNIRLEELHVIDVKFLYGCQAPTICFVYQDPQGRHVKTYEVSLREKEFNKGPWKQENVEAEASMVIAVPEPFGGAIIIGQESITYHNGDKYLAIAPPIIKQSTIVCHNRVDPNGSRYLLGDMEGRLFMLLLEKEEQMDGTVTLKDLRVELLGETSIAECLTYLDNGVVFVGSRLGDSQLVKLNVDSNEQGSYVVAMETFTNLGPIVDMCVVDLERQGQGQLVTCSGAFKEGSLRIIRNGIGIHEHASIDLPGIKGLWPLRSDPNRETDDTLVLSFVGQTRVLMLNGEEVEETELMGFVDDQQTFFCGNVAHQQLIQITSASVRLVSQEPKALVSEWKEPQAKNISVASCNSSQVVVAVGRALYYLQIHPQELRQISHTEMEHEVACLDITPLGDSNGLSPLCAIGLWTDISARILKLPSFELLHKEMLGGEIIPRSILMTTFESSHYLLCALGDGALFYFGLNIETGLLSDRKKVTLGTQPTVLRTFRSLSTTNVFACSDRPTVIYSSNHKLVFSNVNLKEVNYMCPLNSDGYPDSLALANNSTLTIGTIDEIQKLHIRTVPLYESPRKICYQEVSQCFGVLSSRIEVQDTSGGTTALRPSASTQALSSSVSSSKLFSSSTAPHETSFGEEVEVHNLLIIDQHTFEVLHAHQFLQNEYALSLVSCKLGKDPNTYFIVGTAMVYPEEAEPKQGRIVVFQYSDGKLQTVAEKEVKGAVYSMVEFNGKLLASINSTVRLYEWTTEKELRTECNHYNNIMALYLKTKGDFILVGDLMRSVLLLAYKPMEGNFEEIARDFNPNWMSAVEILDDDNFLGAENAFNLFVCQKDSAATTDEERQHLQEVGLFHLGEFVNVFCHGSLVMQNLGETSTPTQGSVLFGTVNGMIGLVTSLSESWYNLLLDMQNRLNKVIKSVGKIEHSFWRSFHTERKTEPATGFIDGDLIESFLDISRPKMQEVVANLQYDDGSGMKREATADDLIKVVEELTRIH

Structure (SMILES): O=C1CC[C@H](N2Cc3cc(C(=O)Nc4cncc5ccccc45)ccc3C2=O)C(=O)N1 (stereo in doubt) [Example 2, 2-(2,6-dioxopiperidin-3-yl)-N-(isoquinolin-4-yl)-1-oxoisoindoline-5-carboxamide]
pIC50 [1, 5]: 6.00 to 7.00

Structure (SMILES): O=C1CCC(N2Cc3cc(C(=O)N[C@H]4CCc5ccccc54)ccc3C2=O)C(=O)N1 (stereo partly drawn) [Example 1, N—((S)-2,3-dihydro-1H-inden-1-yl)-2-(2,6-dioxopiperidin-3-yl)-1-oxoisoindoline-5-carboxamide]
pIC50 [1, 6]: > 7.00
inhibition at 1 µM ([2]; MV4-11, 6 h): < 50%

Structure (SMILES): O=C1CCC(N2Cc3cc(C(=O)Nc4csc5ccccc45)ccc3C2=O)C(=O)N1 (stereo not drawn) [Example 8, N-(benzo[b]thiophen-3-yl)-2-(2,6-dioxopiperidin-3-yl)-1-oxoisoindoline-5-carboxamide]
pIC50 [1, 5]: > 7.00
inhibition at 1 µM ([2]; MV4-11, 6 h): > 75%

Structure (SMILES): O=C1CCC(N2Cc3cc(C(=O)N4CCc5ccccc54)ccc3C2=O)C(=O)N1 (stereo not drawn) [Example 11, 3-(5-(indoline-1-carbonyl)-1-oxoisoindolin-2-yl)piperidine-2,6-dione]
pIC50 [1, 6]: > 7.00
inhibition at 1 µM ([2]; MV4-11, 6 h): > 75%

pIC50 [1, 5]: > 7.00
Structure (SMILES): O=C1CCC(N2Cc3cc(C(=O)N4Cc5ccccc5C4)ccc3C2=O)C(=O)N1 (stereo not drawn) [Example 12, 3-(5-(isoindoline-2-carbonyl)-1-oxoisoindolin-2-yl)piperidine-2,6-dione]

Structure (SMILES): O=C1CCC(N2Cc3cc(C(=O)N4Cc5cccc(C(F)(F)F)c5C4)ccc3C2=O)C(=O)N1 (stereo not drawn) [Example 21, 3-(1-oxo-5-(4-(trifluoromethyl)isoindoline-2-carbonyl)isoindolin-2-yl)piperidine-2,6-dione]
pIC50 [1, 5]: > 7.00
inhibition at 1 µM [2, 7]: > 75%

Structure (SMILES): O=C1CCC(N2Cc3cc(C(=O)N4Cc5ccc(C(F)(F)F)cc5C4)ccc3C2=O)C(=O)N1 (stereo not drawn) [Example 22, 3-(1-oxo-5-(5-(trifluoromethyl)isoindoline-2-carbonyl)isoindolin-2-yl)piperidine-2,6-dione]
pIC50 [1, 5]: > 7.00
inhibition at 1 µM [2, 7]: > 75%

Structure (SMILES): O=C1CCC(N2Cc3cc(C(=O)N4CCc5ncccc54)ccc3C2=O)C(=O)N1 (stereo not drawn) [Example 28, 3-(5-(2,3-dihydro-1H-pyrrolo[3,2-b]pyridine-1-carbonyl)-1-oxoisoindolin-2-yl)piperidine-2,6-dione]
pIC50 [1, 5]: > 7.00
inhibition at 1 µM [2, 7]: 50 to 75%

Structure (SMILES): O=C1CCC(N2Cc3cc(C(=O)N4Cc5ccncc5C4)ccc3C2=O)C(=O)N1 (stereo not drawn) [Example 31, 3-(5-(2,3-dihydro-1H-pyrrolo[3,4-c]pyridine-2-carbonyl)-1-oxoisoindolin-2-yl)piperidine-2,6-dione]
pIC50 [1, 5]: 6.00 to 7.00
inhibition at 1 µM [2, 7]: 50 to 75%

Structure (SMILES): O=C1CCC(N2Cc3cc(C(=O)N4CCc5ccc(F)cc54)ccc3C2=O)C(=O)N1 (stereo not drawn) [Example 32, 3-(5-(6-fluoroindoline-1-carbonyl)-1-oxoisoindolin-2-yl)piperidine-2,6-dione]
pIC50 [1, 5]: > 7.00
inhibition at 1 µM ([2]; MV4-11, 6 h): > 75%

Structure (SMILES): O=C1CCC(N2Cc3cc(C(=O)N4CCc5cc(Cl)cc(F)c54)ccc3C2=O)C(=O)N1 (stereo not drawn) [Example 56, 3-(5-(5-chloro-7-fluoroindoline-1-carbonyl)-1-oxoisoindolin-2-yl)piperidine-2,6-dione]
pIC50 [1, 5]: 6.00 to 7.00
inhibition at 1 µM [2, 7]: 50 to 75%

Structure (SMILES): O=C1CCC(N2Cc3cc(C(=O)N4CCc5cc(F)cc(F)c54)ccc3C2=O)C(=O)N1 (stereo not drawn) [Example 57, 3-(5-(5,7-difluoroindoline-1-carbonyl)-1-oxoisoindolin-2-yl)piperidine-2,6-dione]
pIC50 [1, 5]: 6.00 to 7.00
inhibition at 1 µM ([2]; MV4-11, 6 h): 50 to 75%

Structure (SMILES): O=C1CCC(N2Cc3cc(C(=O)Nc4ccsc4)ccc3C2=O)C(=O)N1 (stereo not drawn) [Example 58, 2-(2,6-dioxopiperidin-3-yl)-1-oxo-N-(thiophen-3-yl)isoindoline-5-carboxamide]
pIC50 [1, 5]: > 7.00
inhibition at 1 µM ([2]; MV4-11, 6 h): > 75%

Structure (SMILES): O=C1CCC(N2Cc3cc(C(=O)Nc4csc5cccnc45)ccc3C2=O)C(=O)N1 (stereo not drawn) [Example 59, 2-(2,6-dioxopiperidin-3-yl)-1-oxo-N-(thieno[3,2-b]pyridin-3-yl)isoindoline-5-carboxamide]
pIC50 [1, 5]: > 7.00
inhibition at 1 µM [2, 7]: > 75%

Structure (SMILES): O=C1CCC(N2Cc3cc(C(=O)Nc4csc5ccncc45)ccc3C2=O)C(=O)N1 (stereo not drawn) [Example 60]
pIC50 [1, 5]: 6.00 to 7.00
inhibition at 1 µM [2, 7]: 50 to 75%

Structure (SMILES): O=C1CCC(N2Cc3cc(C(=O)Nc4csc5cnccc45)ccc3C2=O)C(=O)N1 (stereo not drawn) [Example 61, 2-(2,6-dioxopiperidin-3-yl)-1-oxo-N-(thieno[2,3-c]pyridin-3-yl)isoindoline-5-carboxamide]
pIC50 [1, 5]: > 7.00
inhibition at 1 µM [2, 7]: > 75%

Structure (SMILES): O=C1CCC(N2Cc3cc(C(=O)Nc4csc5ncccc45)ccc3C2=O)C(=O)N1 (stereo not drawn) [Example 62, 2-(2,6-dioxopiperidin-3-yl)-1-oxo-N-(thieno[2,3-b]pyridin-3-yl)isoindoline-5-carboxamide]
pIC50 [1, 5]: < 6.00
inhibition at 1 µM [2, 7]: < 50%

Structure (SMILES): COc1cc(F)c2c(c1)CCN2C(=O)c1ccc2c(c1)CN(C1CCC(=O)NC1=O)C2=O (stereo not drawn) [Example 64, 3-(5-(7-fluoro-5-methoxyindoline-1-carbonyl)-1-oxoisoindolin-2-yl)piperidine-2,6-dione]
pIC50 ([1]; MV4-11, TABLE 2, MV-4-11 cells assumed, CellTiter-Glo, 44 hours, read-out: Cell viability classification): > 7.00

Structure (SMILES): O=C1CCC(N2Cc3cc(C(=O)N4CCc5c(F)cccc54)ccc3C2=O)C(=O)N1 (stereo not drawn) [Example 74, 3-(5-(4-fluoroindoline-1-carbonyl)-1-oxoisoindolin-2-yl)piperidine-2,6-dione]
pIC50 [1, 5]: > 7.00
inhibition at 1 µM ([2]; MV4-11, 6 h): > 75%

Structure (SMILES): O=C1CCC(N2Cc3cc(C(=O)N4CCc5cc(F)ccc54)ccc3C2=O)C(=O)N1 (stereo not drawn) [Example 75, 3-(5-(5-fluoroindoline-1-carbonyl)-1-oxoisoindolin-2-yl)piperidine-2,6-dione]
pIC50 [1, 5]: > 7.00
inhibition at 1 µM ([2]; MV4-11, 6 h): > 75%

Structure (SMILES): O=C1CCC(N2Cc3cc(C(=O)N4CCc5cccc(F)c54)ccc3C2=O)C(=O)N1 (stereo not drawn) [Example 76, 3-(5-(7-fluoroindoline-1-carbonyl)-1-oxoisoindolin-2-yl)piperidine-2,6-dione]
pIC50 [1, 5]: 6.00 to 7.00
inhibition at 1 µM ([2]; MV4-11, 6 h): < 50%

pIC50 [1, 8]: < 6.00
Structure (SMILES): O=C1CCN(c2ccc3ccc(C(=O)N4CCc5cccc(F)c54)cc3c2)C(=O)N1 [Example 118, 1-(7-(7-fluoroindoline-1-carbonyl)naphthalen-2-yl)dihydropyrimidine-2,4(1H,3H)-dione]

pIC50 [1, 8]: < 6.00
Structure (SMILES): O=C1CCN(c2ccc3ccc(C(=O)N4CCc5cc(F)ccc54)cc3c2)C(=O)N1 [Example 119, 1-(7-(5-fluoroindoline-1-carbonyl)naphthalen-2-yl)dihydropyrimidine-2,4(1H,3H)-dione]

Structure (SMILES): O=C1CCN(c2ccc3ccc(C(=O)N4CCc5ccccc54)cc3c2)C(=O)N1 [Example 120, 1-(7-(indoline-1-carbonyl)naphthalen-2-yl)dihydropyrimidine-2,4(1H,3H)-dione]
pIC50 [1, 8]: < 6.00

pIC50 [1, 8]: 6.00 to 7.00
Structure (SMILES): O=C1CCN(c2ccc3ccc(C(=O)N4Cc5ccccc5C4)cc3c2)C(=O)N1 [Example 125, 1-(7-(isoindoline-2-carbonyl)naphthalen-2-yl)dihydropyrimidine-2,4(1H,3H)-dione]

pIC50 [1, 8]: < 6.00
Structure (SMILES): O=C1CCN(c2ccc3ccc(C(=O)N4CCc5c(F)cccc54)cc3c2)C(=O)N1 [Example 126, 1-(7-(4-fluoroindoline-1-carbonyl)naphthalen-2-yl)dihydropyrimidine-2,4(1H,3H)-dione]

pIC50 [1, 8]: 6.00 to 7.00
Structure (SMILES): O=C1CCN(c2ccc3ccc(C(=O)N4Cc5cccc(F)c5C4)cc3c2)C(=O)N1 [Example 127, 1-(7-(4-fluoroisoindoline-2-carbonyl)naphthalen-2-yl)dihydropyrimidine-2,4(1H,3H)-dione]

pIC50 [1, 8]: < 6.00
Structure (SMILES): O=C1CCN(c2ccc3ccc(C(=O)N4CCCc5ccccc54)cc3c2)C(=O)N1 [Example 128, 1-(7-(1,2,3,4-tetrahydroquinoline-1-carbonyl)naphthalen-2-yl)dihydropyrimidine-2,4(1H,3H)-dione]

Structure (SMILES): O=C1CCN(c2ccc3ccc(C(=O)N4CCc5ccccc5C4)cc3c2)C(=O)N1 [Example 129, 1-(7-(1,2,3,4-tetrahydroisoquinoline-2-carbonyl)naphthalen-2-yl)dihydropyrimidine-2,4(1H,3H)-dione]
pIC50 [1, 8]: < 6.00

Structure (SMILES): O=C1CCC(N2Cc3cc(C(=O)N4Cc5ccc(OC(F)(F)F)c(F)c5C4)ccc3C2=O)C(=O)N1 (stereo not drawn) [Example 263, 3-(5-(4-fluoro-5-(trifluoromethoxy)isoindoline-2-carbonyl)-1-oxoisoindolin-2-yl)piperidine-2,6-dione]
DC50 [3]: 100 to 300 nM
pIC50 [4]: 7.00 to 8.00

Structure (SMILES): O=C1CCC(N2Cc3cc(C(=O)N4Cc5cc(F)cc(C(F)(F)F)c5C4)ccc3C2=O)C(=O)N1 (stereo not drawn) [Example 264, 3-(5-(6-fluoro-4-(trifluoromethyl)isoindoline-2-carbonyl)-1-oxoisoindolin-2-yl)piperidine-2,6-dione]
DC50 [3]: < 100 nM
pIC50 [4]: 7.00 to 8.00
